Results: patent publication US20220296541A1, “N-PALMITOYL-ETHANOLAMIDE FOR USE IN THE PREVENTION OF COLORECTAL CARCINOMA” (priority 2021, published 2022)

What was measured:
HCT116 cells [1] = assay: BrdU proliferation ELISA, HCT116 cells; format: cell-based, human; settings: 1-30 μM, 24 hours of exposure (FIG. 2A)
Method: (§1) For the in vitro experiments, immortalized human colon cancer (HCT116) and human colorectal adenocarcinoma cell lines (Caco-2) and immortalized healthy human colon epithelial cells (HCEC) were cultured in DMEM growth medium (Sigma Aldrich) supplemented with 10% serum bovine fetal (FBS, Sigma Aldrich) and kept at 37° C. in an incubator with a 5% CO2 atmosphere.
(§2) To assess viability, the cells are stained with Trypan blue while cell proliferation, in the presence or absence of ultra-micronized PEA (1-30 μM), was determined using the BrdU proliferation ELISA kit (Roche, Milan, Italy).

Caco-2 cells = assay: BrdU proliferation ELISA, Caco-2 cells; format: cell-based, human; settings: 30 μM, 24 h (FIG. 2B)
Method: as §1, §2

[2] = test system: healthy human colon epithelial cells HCEC; assay: BrdU proliferation ELISA, healthy colon epithelial cells HCEC; format: cell-based; settings: 24 h (FIG. 2C)
Method: as §1, §2

HCT116 cells [3] = assay: Cell cycle analysis by flow cytometry (BrdU/7-AAD) of HCT116 cells; format: cell-based, human; settings: 30 μM for 24 h (FIG. 3A)
Method: as §1
The cell cycle analysis of HCT116 cells was performed following the protocol reported in the BD Pharmingen™ BrdU Flow Kit (BD Biosciences, USA). For the study, 1.5×10^5 cells was sown on 6-well plates and kept overnight in serum-free medium in the presence or absence of ultra-micronized PEA (30μM) for 24 h. The cells were detected with the BriCyte flow cytometer (Mindray, Italy) according to the BrdU (bromodeoxyuridine) and 7-AAD (7-aminoactinomycin D) content thereof. The data obtained were analyzed with FlowJo v10 software (tree Star, USA) to understand the distribution of HCT116 in the different cell cycle phases.

cyclin B1 = assay: Gene expression of cyclin B1 by Real-Time PCR in HCT116 cells; format: cell-based, human; settings: 30 μM for 24 h (FIG. 3B)
Method: as §1
(§3) The expression of the CDK1 and CYCLIN B1 genes was evaluated by virtue of the quantitative Real-Time PCR method using specific primers.

[4] = test system: cyclic-dependent kinase 1 (CDK1); assay: Gene expression of CDK1 by Real-Time PCR in HCT116 cells; format: cell-based, human; settings: 30 μM for 24 h (FIG. 3C)
Method: as §1, §3

[5] = test system: AOM-induced ACF, polyps and tumors; assay: AOM mouse model of colon cancer; format: in vivo, male CD1 mice; settings: 10 mg/kg per os three times a week for 13 weeks, starting the week before first AOM
Method: The in vivo study was conducted on six-week-old (25-30 g) male CD1 mice fed ad libitum and housed in cages with a controlled sleep/wake cycle. Before the start of the experimentation, the animals were subjected to an acclimatization period of 1 week considering all the experimental procedures and protocols, compliant with the principles of the care of laboratory animals approved by the Italian Ministry of Health and respecting the ARRIVE guidelines [Curtis M J et al. Experimental design and analysis and their reporting II: updated and simplified guidance for authors and peer reviewers. […] The animals were chemically treated with AOM (azoxymethane, 40 mg/kg in total) [Neufert C et al. An inducible mouse model of colon carcinogenesis for the analysis of sporadic and inflammation-driven tumor progression. […] A single dose of AOM was injected intraperitoneally at a concentration of 10 mg/kg at the beginning of the first, second, third and fourth weeks of the experiment [Pagano E et al. Pharmacological inhibition of MAGL attenuates experimental colon carcinogenesis, Pharmacol Res 2017; 119: 227-236]. […] The animals were euthanized 12 weeks after the first AOM injection and the colorectal area was collected. […] The detection and quantification of ACF, polyps and colorectal tumors was performed following the protocol of Pagano E et al. Pharmacological inhibition of MAGL attenuates experimental colon carcinogenesis, Pharmacol Res 2017; 119: 227-236.

**Q.** `CCCCCCCCCCCCCCCC(=O)NCCO` [ultra-micronized PEA, palmitoylethanolamide] was tested. Which “proliferation rate of HCT116 cells” value (HCT116 cells [1]) did it give?
**A.** Its value is “reduces the proliferation rate”.

**Q.** What about the “proliferation of non-metastatic Caco-2 cells” value (Caco-2 cells) of the same molecule?
**A.** The value was “significantly reducing the proliferation”.

**Q.** And the “proliferation rate of the healthy epithelial cell line HCEC” value [2]?
**A.** The value was “did not affect the proliferation rate”.

**Q.** And the “cell cycle arrest in the G2/M phase” value (HCT116 cells [3])?
**A.** The value was “blocking neoplastic cells in the G2/M phase”.

**Q.** What about the “percentage of cells in the S phase” value (HCT116 cells [3]) of the same molecule?
**A.** Its value is “significant reduction”.

**Q.** And the “expression of cyclin B1” value (cyclin B1)?
**A.** The value was “increased expression”.

**Q.** And the “expression of CDK1” value [4]?
**A.** The value was “increased expression”.

**Q.** And the “number of pre-neoplastic ACF lesions” value ([5]; vs AOM alone (FIG. 4A))?
**A.** The value was “significantly reduces”.

**Q.** And the number of polyps ([5]; vs AOM alone (FIG. 4B))?
**A.** Its number of polyps is “strong tendency to also reduce”.

**Q.** And the “total number of tumors” value ([5]; vs AOM alone (FIG. 4C))?
**A.** The value was “significantly reduces”.
